Like-named read-outs stand apart in the source and are kept apart here.
How the values were obtained:
Format in all cases: biochemical
[1] = molecular target: human activated kallikrein enzyme (Homo sapiens (Human), UniProt P03952); test: Inhibition of human activated kallikrein enzyme, fluorogenic peptide substrate assay (two formats); details: read-out: pKal EC50
Summary of the method: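 Fluorogenic Pro-Phe-Arg-AMC substrate (300 uM) in 20 mM Tris pH 7.5, 150 mM NaCl, 1 mM EDTA, 0.1% PEG-400, 0.1% Triton X-100; enzyme and inhibitor preincubated 30 min at room temperature. Format one: 500 pM enzyme, 10 min reaction; format two: 5 pM enzyme, 18 hr reaction. Fluorescence read at 380 nm excitation/460 nm emission.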

[2] = test system: Trypsin; test: Selectivity screen of serine proteases, anti-target panel: Trypsin
Procedure: (§1) Compounds 11, 33, and 53 were evaluated in a selectivity screen of serine proteases.

[3] = molecular target: Thrombin (Homo sapiens (Human), UniProt P00734); test: Selectivity screen of serine proteases, anti-target panel: Thrombin
Procedure: as §1

[4] = molecular target: Elastase; test: Selectivity screen of serine proteases, anti-target panel: Elastase
Procedure: as §1

[5] = test system: selected anti-target proteases; test: Selectivity screen of serine proteases (overall statement); details: none showed any inhibitory activity of the anti-target proteases
Procedure: as §1

[6] = molecular target: FXa (Homo sapiens (Human), UniProt P00742); test: Selectivity screen of serine proteases, anti-target panel: FXa
Procedure: as §1

[7] = Table 2, column head prints nM, ranges defined in μM

Chain of human activated kallikrein enzyme (P03952 391-638): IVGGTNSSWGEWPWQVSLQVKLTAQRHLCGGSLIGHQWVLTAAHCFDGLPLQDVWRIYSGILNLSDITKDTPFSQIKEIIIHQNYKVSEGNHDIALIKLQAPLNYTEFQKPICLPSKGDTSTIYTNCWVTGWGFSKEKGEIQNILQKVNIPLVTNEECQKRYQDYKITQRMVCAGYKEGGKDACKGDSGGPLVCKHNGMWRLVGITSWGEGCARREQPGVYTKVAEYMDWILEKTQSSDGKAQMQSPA
Chain of human activated kallikrein enzyme (P03952 20-390 partner): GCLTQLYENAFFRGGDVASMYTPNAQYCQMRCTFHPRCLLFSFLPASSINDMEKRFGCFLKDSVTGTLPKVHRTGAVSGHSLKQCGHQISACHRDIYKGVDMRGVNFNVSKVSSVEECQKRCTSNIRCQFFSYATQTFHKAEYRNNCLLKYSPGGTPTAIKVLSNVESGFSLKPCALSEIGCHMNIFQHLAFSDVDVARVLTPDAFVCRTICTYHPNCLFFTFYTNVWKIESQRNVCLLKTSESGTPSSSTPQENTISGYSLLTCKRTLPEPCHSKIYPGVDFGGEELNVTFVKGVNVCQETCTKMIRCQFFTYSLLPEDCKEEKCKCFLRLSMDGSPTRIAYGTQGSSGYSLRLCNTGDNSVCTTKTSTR
Chain of FXa (P00742 235-488): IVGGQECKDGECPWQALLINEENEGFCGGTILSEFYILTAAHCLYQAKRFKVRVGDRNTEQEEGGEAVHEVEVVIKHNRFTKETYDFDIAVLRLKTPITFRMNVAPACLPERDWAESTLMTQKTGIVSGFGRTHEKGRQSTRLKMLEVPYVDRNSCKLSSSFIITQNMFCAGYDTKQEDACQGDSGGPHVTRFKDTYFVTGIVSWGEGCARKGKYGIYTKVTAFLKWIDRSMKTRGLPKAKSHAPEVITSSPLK
Chain of FXa (P00742 41-179 partner): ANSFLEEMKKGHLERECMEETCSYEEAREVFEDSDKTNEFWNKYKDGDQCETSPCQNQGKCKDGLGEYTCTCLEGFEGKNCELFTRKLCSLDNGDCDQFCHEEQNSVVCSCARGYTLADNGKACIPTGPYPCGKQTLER

With `CNC(=O)[C@H](CCCCNC(=N)N)NC(=O)c1csc([C@@H]2C[C@@H](N)CN2C(=O)c2cn3cc(Cl)ccc3n2)n1` [Compound 11, 2-((2S,4R)-4-amino-1-(6-chloroimidazo[1,2-a]pyridine-2-carbonyl)pyrrolidin-2-yl)-N—((S)-6-guanidino-1-(methylamino)-1-oxohexan-2-yl)thiazole-4-carboxamide] the EC50 [1, 7] was ≤ 100 nM, the EC50 ([1]; Table 3) was 32 nM and the IC50 [2] was > 100000 nM. The IC50 [3] was > 10000 nM, the IC50 [4] was > 10000 nM and the “Selectivity for pKal over selected anti-target proteases” value (from here on “Selectivity for pKal”) [5] was “selective inhibitors of pKal”. The IC50 [6] was > 10000 nM.

`CNC(=O)[C@H](CCCCNC(=N)N)NC(=O)c1csc([C@@H]2CCCN2C(=O)c2cn3cc(Cl)ccc3n2)n1` [Compound 33, 2-((S)-1-(6-Chloroimidazo[1,2-a]pyridine-2-carbonyl)pyrrolidin-2-yl)-N—((S)-6-guanidino-1-(methylamino)-1-oxohexan-2-yl)thiazole-4-carboxamide] was tested, and the EC50 [1, 7] was 1000 to 5000 nM, the EC50 ([1]; Table 3) was 3240 nM and the IC50 [2] was > 100000 nM. For the same molecule, the IC50 [3] was > 10000 nM, the IC50 [4] was > 10000 nM and the “Selectivity for pKal” value [5] was “selective inhibitors of pKal”. The IC50 [6] was > 10000 nM.

In the case of `Nc1nccc2cc(CCNC(=O)c3csc([C@@H]4C[C@@H](N)CN4C(=O)c4cn5cc(Cl)ccc5n4)n3)ccc12` [Compound 53, 2-((2S,4R)-4-amino-1-(6-chloroimidazo[1,2-a]pyridine-2-carbonyl)pyrrolidin-2-yl)-N-(2-(1-aminoisoquinolin-6-yl)ethyl)thiazole-4-carboxamide], the EC50 [1, 7] is reported as ≤ 100 nM, the EC50 ([1]; Table 3) is reported as 15 nM and the IC50 [2] is reported as > 100000 nM. For the same molecule, the IC50 [3] was > 10000 nM, the IC50 [4] was > 10000 nM and the “Selectivity for pKal” value [5] was “selective inhibitors of pKal”. The IC50 [6] was > 10000 nM.

With `N[C@@H]1C[C@@H](c2nc(C(=O)NCc3n[nH]c4ccc(Cl)cc34)cs2)N(C(=O)c2cn3cc(Cl)ccc3n2)C1` [Compound 58, 2-((2S,4R)-4-amino-1-(6-chloroimidazo[1,2-a]pyridine-2-carbonyl)pyrrolidin-2-yl)-N-((5-chloro-1H-indazol-3-yl)methyl)thiazole-4-carboxamide] the EC50 [1, 7] was 5000 to 9900 nM.

`N[C@@H]1C[C@@H](c2nc(C(=O)NCc3n[nH]c4cc(Cl)ccc34)cs2)N(C(=O)c2cn3cc(Cl)ccc3n2)C1` [Compound 59, 2-((2S,4R)-4-amino-1-(6-chloroimidazo[1,2-a]pyridine-2-carbonyl)pyrrolidin-2-yl)-N-((6-chloro-1H-indazol-3-yl)methyl)thiazole-4-carboxamide] was tested, and the EC50 [1, 7] was > 9900 nM.

In the case of `Cc1cc2c(N)nccc2c(C)c1CNC(=O)c1csc([C@@H]2C[C@@H](N)CN2C(=O)c2cn3cc(Cl)ccc3n2)n1` [Compound 60, 2-((2S,4R)-4-amino-1-(6-chloroimidazo[1,2-a]pyridine-2-carbonyl)pyrrolidin-2-yl)-N-((1-amino-5,7-dimethylisoquinolin-6-yl)methyl)thiazole-4-carboxamide], the EC50 [1, 7] is reported as ≤ 100 nM.

With `CNC(=O)[C@H](CCCCNC(=N)N)NC(=O)c1csc([C@@H]2C[C@@H](N)CN2C(=O)c2cc3cc(Cl)c(Cl)cc3s2)n1` [Compound 61, 2-((2S,4R)-4-amino-1-(5,6-dichlorobenzo[b]thiophene-2-carbonyl)pyrrolidin-2-yl)-N—((S)-6-guanidino-1-(methylamino)-1-oxohexan-2-yl)thiazole-4-carboxamide] the EC50 [1, 7] was 100 to 1000 nM.

In the case of `CNC(=O)[C@H](CCCCNC(=N)N)NC(=O)c1csc([C@@H]2C[C@@H](N)CN2C(=O)c2cc3ccc(Cl)cc3s2)n1` [Compound 62, 2-((2S,4R)-4-amino-1-(6-chlorobenzo[b]thiophene-2-carbonyl)pyrrolidin-2-yl)-N—((S)-6-guanidino-1-(methylamino)-1-oxohexan-2-yl)thiazole-4-carboxamide], the EC50 [1, 7] is reported as 100 to 1000 nM.

With `CNC(=O)[C@H](CCCCNC(=N)N)NC(=O)c1csc([C@@H]2C[C@@H](N)CN2C(=O)c2cc3c(Cl)cccc3s2)n1` [Compound 63, 2-((2S,4R)-4-amino-1-(4-chlorobenzo[b]thiophene-2-carbonyl)pyrrolidin-2-yl)-N—((S)-6-guanidino-1-(methylamino)-1-oxohexan-2-yl)thiazole-4-carboxamide] the EC50 [1, 7] was 1000 to 5000 nM.

With `CNC(=O)[C@H](CCCCNC(=N)N)NC(=O)c1csc([C@@H]2C[C@@H](N)CN2C(=O)c2cc3cc(C(F)(F)F)ccc3s2)n1` [Compound 64, 2-((2S,4R)-4-amino-1-(5-(trifluoromethyl)benzo[b]thiophene-2-carbonyl)pyrrolidin-2-yl)-N—((S)-6-guanidino-1-(methylamino)-1-oxohexan-2-yl)thiazole-4-carboxamide] the EC50 [1, 7] was 100 to 1000 nM.

In the case of `CNC(=O)[C@H](CCCCNC(=N)N)NC(=O)c1csc([C@@H]2C[C@@H](N)CN2C(=O)c2cc3ccc(C)cc3s2)n1` [Compound 65, 2-((2S,4R)-4-amino-1-(6-methylbenzo[b]thiophene-2-carbonyl)pyrrolidin-2-yl)-N—((S)-6-guanidino-1-(methylamino)-1-oxohexan-2-yl)thiazole-4-carboxamide], the EC50 [1, 7] is reported as 100 to 1000 nM.

`CNC(=O)[C@H](CCCCNC(=N)N)NC(=O)c1csc([C@@H]2C[C@@H](N)CN2C(=O)c2cnc3ccc(Cl)cc3c2)n1` [Compound 66, 2-((2S,4R)-4-amino-1-(6-chloroquinoline-3-carbonyl)pyrrolidin-2-yl)-N—((S)-6-guanidino-1-(methylamino)-1-oxohexan-2-yl)thiazole-4-carboxamide] was tested, and the EC50 [1, 7] was 100 to 1000 nM.

Molecule `CNC(=O)[C@H](CCCCNC(=N)N)NC(=O)c1csc([C@@H]2C[C@@H](N)CN2C(=O)c2ccc3nc(Cl)ccc3c2)n1` [Compound 67, 2-((2S,4R)-4-amino-1-(2-chloroquinoline-6-carbonyl)pyrrolidin-2-yl)-N—((S)-6-guanidino-1-(methylamino)-1-oxohexan-2-yl)thiazole-4-carboxamide] has an EC50 [1, 7] of 1000 to 5000 nM.

— patent US11168083B2, “Inhibitors of Plasma Kallikrein and uses thereof” (Takeda Pharmaceutical Company Limited, priority 2017, dated 2021)
